Values of other authors as cited in publication PMC7172884 (Journal of Molecular Biology, 2006).

Key:
HAV 3C = target: T1, HAV 3C (Human hepatitis A virus genotype IB, UniProt P08617); details: in vitro, partial viral polyprotein (ΔP1-2A-2B) as substrate
T1 sequence (P08617 1520-1738 limits assumed): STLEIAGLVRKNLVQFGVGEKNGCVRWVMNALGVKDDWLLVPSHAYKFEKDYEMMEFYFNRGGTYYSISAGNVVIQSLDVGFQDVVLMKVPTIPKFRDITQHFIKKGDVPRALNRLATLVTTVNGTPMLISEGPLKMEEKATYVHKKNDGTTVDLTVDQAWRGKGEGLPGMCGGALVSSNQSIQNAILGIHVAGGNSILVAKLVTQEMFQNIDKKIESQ

HAV = details: HAV-infected cells, inhibitor at 5 μM

N-acetyl-leucyl-alanyl-alanyl-(N,N-dimethyl)-glutamine-fluoromethylketone [inhibitor Ia]
IC50 (HAV 3C): 41 µM
reduction of viral yield (HAV): 25 fold
